The values that follow come from ChEMBL document CHEMBL4308854, “Novel indole-thiazolidinone conjugates: Design, synthesis and whole-cell phenotypic evaluation as a novel class of antimicrobial agents” (Eur J Med Chem, 2018).

Values after ≈ are worked out from the molar mass of the structure shown.

Data set [1] is described as follows: Selectivity index, ratio of IC50 for human WI38 cells to MIC for Mycobacterium tuberculosis RCMB 010126 clinical isolate. The settings on record: read-out: Selectivity Index. Format: toxicity.
Data set [2] concerns Staphylococcus aureus. The experiment in a line: Potency index, ratio of ciprofloxacin MIC to compound MIC for Staphylococcus aureus RCMB 010028. Format: functional.
A short description of data set [3]: Stability in mouse RAW264.7 cells measured after 48 hrs. The data set is classed as ADME, cell-based. The settings on record: raw264.7, 48 h.
The test system of data set [4] is Escherichia coli. The data set is described as follows: Potency index, ratio of ciprofloxacin MIC to compound MIC for Escherichia coli RCMB 010052. The data set is classed as functional.
Data set [5] deals with Escherichia coli. The data set is described as follows: Antibacterial activity against Escherichia coli RCMB 010052 assessed as diameter of zone inhibition after 24 hrs by agar well diffusion assay. Format: functional. A general note: In agar diffusion tests the substance spreads into inoculated agar from a disc or well.
For data set [6], the system named is Aspergillus fumigatus. The experiment in a line: Antifungal activity against Aspergillus fumigatus RCMB 02568 assessed as diameter of zone inhibition after 48 hrs by agar well diffusion assay. Format: functional.
Data set [7] deals with Aspergillus fumigatus. The data set is described as follows: Antifungal activity against Aspergillus fumigatus RCMB 02568 after 24 hrs by serial dilution method. Format: functional. The settings on record: RCMB 02568, 24 h.
Data set [8] concerns Staphylococcus aureus. The data set is described as follows: Antibacterial activity against methicillin-resistant Staphylococcus aureus ATCC 33592 after 24 hrs by serial dilution method. Format: functional. To be noted: ATCC 33592, 24 h.
Data set [9] has as its system Mycobacterium tuberculosis. The experiment in a line: Antitubercular activity against Mycobacterium tuberculosis RCMB 010126 clinical isolate after 4 days by microplate alamar blue assay. The data set is classed as functional.
Data set [10] is described as follows: Cytotoxicity against mouse RAW264.7 cells. The data set is classed as cell-based.
For data set [11], the system named is Staphylococcus aureus. The experiment in a line: Antibacterial activity against Staphylococcus aureus RCMB 010028 after 24 hrs by serial dilution method. The settings on record: RCMB 010028, 24 h. Format: functional.
Data set [12] concerns Candida albicans. The data set is described as follows: Antifungal activity against Candida albicans RCMB 05036 assessed as diameter of zone inhibition after 48 hrs by agar well diffusion assay. Format: functional.
A further data set concerns WI-38. The data set is described as follows: Cytotoxicity against human WI38 cells by MTT assay. The data set is classed as cell-based. A general note: Formazan colour is commonly taken as a measure of viable cells.
In data set [13] the test system is Aspergillus fumigatus. The experiment in a line: Potency index, ratio of amphotericin B MIC to compound MIC for antifungal activity against Aspergillus fumigatus RCMB 02568. The data set is classed as functional.
Data set [14] concerns Escherichia coli. The data set is described as follows: Antibacterial activity against Escherichia coli RCMB 010052 after 24 hrs by serial dilution method. The settings on record: RCMB 010052, 24 h. Format: functional.
The test system of data set [15] is Candida albicans. The data set is described as follows: Antifungal activity against Candida albicans RCMB 05036 after 24 hrs by serial dilution method. To be noted: RCMB 05036, 24 h. Format: functional.
A further data set relates to Mycolicibacterium aurum. The data set is described as follows: Antitubercular activity against Mycobacterium aurum infected in mouse RAW264.7 cells measured after 48 hrs. Format: functional.
In data set [16] the test system is Aspergillus fumigatus. The experiment in a line: Potency index, ratio of amphotericin B MIC to compound MIC for Aspergillus fumigatus RCMB 02568. The data set is classed as functional.
The nature of data set [17]: Selectivity index, ratio of GI50 for mouse RAW264.7 cells to MIC for Mycobacterium aurum infected in mouse RAW264.7 cells. Format: toxicity, cell-based. To be noted: read-out: Selectivity Index.
Data set [18] deals with Staphylococcus aureus. The experiment in a line: Antibacterial activity against Staphylococcus aureus RCMB 010028 assessed as diameter of zone inhibition after 24 hrs by agar well diffusion assay. The data set is classed as functional.
Data set [19] deals with Pseudomonas aeruginosa. The experiment in a line: Antibacterial activity against Pseudomonas aeruginosa RCMB 010043 after 24 hrs by serial dilution method. The data set is classed as functional. The settings on record: RCMB 010043, 24 h.
The subject of data set [20] is Mycobacterium tuberculosis. The data set is described as follows: Potency index, ratio of isoniazid MIC to compound MIC for antitubercular activity against Mycobacterium tuberculosis RCMB 010126 clinical isolate. The data set is classed as functional.
Data set [21] has as its system Pseudomonas aeruginosa. The data set is described as follows: Antibacterial activity against Pseudomonas aeruginosa RCMB 010043 assessed as diameter of zone inhibition after 24 hrs by agar well diffusion assay. The data set is classed as functional.
Data set [22] concerns Pseudomonas aeruginosa. The experiment in a line: Potency index, ratio of ciprofloxacin MIC to compound MIC for Pseudomonas aeruginosa RCMB 010043. Format: functional.
The test system of a further data set is Enterococcus faecium. The data set is described as follows: Antibacterial activity against vancomycin-resistant Enterococcus faecium ATCC 700221 after 24 hrs by serial dilution method. Format: functional. The settings on record: ATCC 700221, 24 h.
Data set [23] has as its system Mycobacterium tuberculosis. The experiment in a line: Antitubercular activity against Mycobacterium tuberculosis RCMB 010126 after 7 days by microplate alamar blue assay. Format: functional. The settings on record: RCMB 010126, 168 h. On the technique in general: The colour change of resazurin is a common sign of viable cells or microbes.
Data set [24] in a line: Selectivity index, ratio of IC50 for human WI38 cells to MIC for Mycobacterium tuberculosis RCMB 010126. Format: toxicity. The settings on record: read-out: Selectivity Index.

As for `CC(=O)c1sc(/N=C2\NC(=O)/C(=C3/C(=O)N(C)c4ccccc43)S2)nc1C`, the results for the selectivity ratio in data set [1] and in data set [17] were 13 and above 5, respectively. For the same molecule, the Ratio in the data set on Staphylococcus aureus [2] was 2; in the data set with Escherichia coli [4], 4; with Aspergillus fumigatus [13], 2; in the data set with Aspergillus fumigatus [16] it was 2; in data set [20], 2; in the data set with Pseudomonas aeruginosa [22], 4. The Stability result in [3] is on record as “Stable”. In addition, the “diameter of the inhibition zone (DIZ)” value is 25.1 mm in the data set on Escherichia coli [5]; 23.2 mm with Aspergillus fumigatus [6]; 25.1 mm in the data set on Candida albicans [12]; 23.4 mm with Staphylococcus aureus [18]; 23.2 mm with Pseudomonas aeruginosa [21]. The MIC (usually the smallest concentration in the dilution series that meets the test's criterion for growth inhibition) against Aspergillus fumigatus [7] is 0.98 µg/mL (≈ 2.46 µM); in the data set on Staphylococcus aureus [8] it was 15.6 µg/mL (≈ 39.2 µM); in data set [9] (Mycobacterium tuberculosis, RCMB 010126, 96 h), 0.39 µg/mL (≈ 0.979 µM); in the data set on Staphylococcus aureus [11] it was 0.98 µg/mL (≈ 2.46 µM); with Escherichia coli [14] it was 0.49 µg/mL (≈ 1.23 µM); against Candida albicans [15], 0.49 µg/mL (≈ 1.23 µM). For the same molecule, the values for the MIC in the data set with Mycolicibacterium aurum, with Pseudomonas aeruginosa [19] and with Enterococcus faecium were 50 µg/mL (≈ 125 µM), 0.98 µg/mL (≈ 2.46 µM) and 62.5 µg/mL (≈ 157 µM), respectively. The “inhibition (INH)” value in [9] is 76.35%. Also, the GI50 (in general, the concentration that inhibits growth by half) in data set [10] was above 250 µg/mL. In addition, the IC50 – broadly, the midpoint of a concentration-inhibition curve – in the data set with WI-38 was 5.3 µg/mL (≈ 13.3 µM).

Take `CCOC(=O)c1sc(/N=C2\NC(=O)/C(=C/c3cccnc3)S2)nc1C`: the MIC in data set [23] worked out at 1.56 µg/mL (≈ 4.17 µM). Also, the selectivity ratio in data set [24] amounted to 52.1.
